Data from US11535607B2, “Isoindolines as HDAC inhibitors” (Valo Health, Inc., priority 2018, dated 2022).
Counter-ions that a name gives are not always drawn.

The compounds below were run against full-length human HDAC11 (Homo sapiens (Human), UniProt Q96DB2) (assay: Probe binding HDAC11 time resolved fluorescence (TRF) assay). Details: Table 2, read-out: HDAC11 IC50 Range.
Sequence of full-length human HDAC11 (Q96DB2 whole entry): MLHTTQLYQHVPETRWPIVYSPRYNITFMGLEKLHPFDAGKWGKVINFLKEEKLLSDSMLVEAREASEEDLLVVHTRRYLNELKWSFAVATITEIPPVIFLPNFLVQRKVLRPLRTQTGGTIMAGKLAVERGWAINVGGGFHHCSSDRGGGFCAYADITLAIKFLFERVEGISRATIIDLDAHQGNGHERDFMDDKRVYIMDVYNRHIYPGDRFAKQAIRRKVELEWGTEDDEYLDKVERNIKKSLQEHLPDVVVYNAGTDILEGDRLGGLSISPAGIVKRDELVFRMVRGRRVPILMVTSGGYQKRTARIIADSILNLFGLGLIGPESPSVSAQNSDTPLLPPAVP
Description: The probe binding HDAC11 assay was performed using a time resolved fluorescence (TRF) assay format. Recombinant N-terminal GST tag full-length human HD AC 11 was expressed and purified from baculovirus in Sf9 insect cells (SignalChem, #H93-30G-1000). […] 4 μL of 2× probe and 2× anti-GST Terbium (Cisbio, #61GSTXLB) was added to assay plates followed by 4 μL of 2×HDAC11.
Data from HD AC 11 Assays were reported as percent inhibition (inh) compared with control wells based on the following equation: % inh=1−((FLU−AveLow)/(AveHigh−AveLow)) where FLU=measured time resolved fluorescence. AveLow=average time resolved fluorescence of no enzyme control (n=32). AveHigh=average time resolved fluorescence of DMSO control (n=32). IC50 values were determined by curve fitting of the standard 4 parameter logistic fitting algorithm included in the Activity Base software package: IDBS XE Designer Model205. Data is fitted using the Levenburg Marquardt algorithm.
`O=C(NO)c1cccc2c1CN(c1nc3c([nH]1)C[C@H](C(F)(F)F)CC3)C2` (single isomer, unassigned) [Compound 2-1, hydrochloride] gave an IC50 of less than 500 nM. `O=C(NO)c1cccc2c1CN(c1nc3c([nH]1)C[C@@H](C(F)(F)F)CC3)C2` (single isomer, unassigned) [Compound 2-2, hydrochloride] was tested, and the IC50 was less than 500 nM. `O=C(NO)c1cccc2c1CN(c1nc3c([nH]1)CC(C(F)(F)F)CC3)C2` (stereo not shown) [Compound 1-1, N-hydroxy-2-(5-(trifluoromethyl)-4,5,6,7-tetrahydro-1H-benzo[d]imidazol-2-yl)isoindoline-4-carboxamide] was tested, and the IC50 was less than 500 nM. For `CCCc1cnc(N2Cc3cccc(C(=O)NO)c3C2)[nH]1` [Compound 1-3, N-hydroxy-2-(5-propyl-1H-imidazol-2-yl)isoindoline-4-carboxamide], the IC50 was greater than 1000 nM. For `CC1(C)CCc2nc(N3Cc4cccc(C(=O)NO)c4C3)[nH]c2C1` [Compound 1-5, 2-(5,5-dimethyl-4,5,6,7-tetrahydro-1H-benzo[d]imidazol-2-yl)-N-hydroxyisoindoline-4-carboxamide hydrochloride], the IC50 was 500 to 1000 nM. `COCCn1c(N2Cc3cccc(C(=O)NO)c3C2)nc2ccccc21` [Compound 1-7, N-hydroxy-2-(1-(2-methoxyethyl)-1H-benzo[d]imidazol-2-yl)isoindoline-4-carboxamide] gave an IC50 greater than 1000 nM. With `O=C(NO)c1cccc2c1CN(c1nc3ccncc3[nH]1)C2` [Compound 3-1, N-hydroxy-2-(3H-imidazo[4,5-c]pyridin-2-yl)isoindoline-4-carboxamide] the IC50 was greater than 1000 nM. With `O=C(NO)c1cccc2c1CN(c1nc3cccnc3[nH]1)C2` [Compound 4-1, N-hydroxy-2-(3H-imidazo[4,5-b]pyridin-2-yl)isoindoline-4-carboxamide] the IC50 was greater than 1000 nM. `O=C(NO)c1cccc2c1CN(c1nc3ncccc3o1)C2` [Compound 5-1, N-hydroxy-2-(oxazolo[4,5-b]pyridin-2-yl)isoindoline-4-carboxamide hydrochloride] was tested, and the IC50 was less than 500 nM. Work on `O=C(NO)c1cccc2c1CN(c1nc3ccncc3o1)C2` [Compound 5-2, N-hydroxy-2-(oxazolo[5,4-c]pyridin-2-yl)isoindoline-4-carboxamide] yielded an IC50 greater than 1000 nM. `O=C(NO)c1cccc2c1CN(c1nc3cnccc3o1)C2` [Compound 6-1, N-hydroxy-2-(oxazolo[4,5-c]pyridin-2-yl)isoindoline-4-carboxamide hydrochloride] showed an IC50 of 500 to 1000 nM. With `O=C(NO)c1cccc2c1CN(c1nc3cccnc3o1)C2` [Compound 6-2, N-hydroxy-2-(oxazolo[5,4-b]pyridin-2-yl)isoindoline-4-carboxamide] the IC50 was greater than 1000 nM. For `O=C(NO)c1cccc2c1CN(c1ncc3ccccc3n1)C2` [Compound 7-1, N-hydroxy-2-(quinazolin-2-yl)isoindoline-4-carboxamide], the IC50 was greater than 1000 nM. With `O=C(NO)c1cccc2c1CN(c1ccc3ncccc3n1)C2` [Compound 7-3, N-hydroxy-2-(1,5-naphthyridin-2-yl)isoindoline-4-carboxamide] the IC50 was greater than 1000 nM. Work on `Cc1cnc(N2Cc3cccc(C(=O)NO)c3C2)[nH]1` [Compound 7-5, N-hydroxy-2-(5-methyl-1H-imidazol-2-yl)isoindoline-4-carboxamide] yielded an IC50 greater than 1000 nM. In the case of `O=C(NO)c1cccc2c1CN(c1cnc3cccnc3c1)C2` [Compound 8-1, N-hydroxy-2-(1,5-naphthyridin-3-yl)isoindoline-4-carboxamide], the IC50 is reported as greater than 1000 nM. Compound `O=C(NO)c1cccc2c1CN(c1ccc3c(c1)OCCN3)C2` [Compound 9-1, 2-(3,4-dihydro-2H-benzo[b][1,4]oxazin-7-yl)-N-hydroxyisoindoline-4-carboxamide hydrochloride] has an IC50 of 500 to 1000 nM. `O=C(NO)c1cccc2c1CN(c1ccc3c(c1)NCCO3)C2` [Compound 9-2, 2-(3,4-dihydro-2H-benzo[b][1,4]oxazin-6-yl)-N-hydroxyisoindoline-4-carboxamide] was tested, and the IC50 was greater than 1000 nM. `O=C(NO)c1cccc2c1CN(c1nc3ncccc3s1)C2` [Compound 10-1, N-hydroxy-2-(thiazolo[4,5-b]pyridin-2-yl)isoindoline-4-carboxamide] was tested, and the IC50 was greater than 1000 nM. Work on `O=C(NO)c1cccc2c1CN(c1nc3cc(C(F)(F)F)ccc3s1)C2` [Compound 11-1, N-hydroxy-2-(5-(trifluoromethyl)benzo[d]thiazol-2-yl)isoindoline-4-carboxamide] yielded an IC50 of less than 500 nM. Compound `O=C(NO)c1cccc2c1CN(c1nc3c([nH]1)CNCC3)C2` [Compound 13-1, N-hydroxy-2-(4,5,6,7-tetrahydro-3H-imidazo[4,5-c]pyridin-2-yl)isoindoline-4-carboxamide] has an IC50 greater than 1000 nM. With `CC(=O)N1CCc2nc(N3Cc4cccc(C(=O)NO)c4C3)[nH]c2C1` [Compound 14-1, 2-(5-acetyl-4,5,6,7-tetrahydro-3H-imidazo[4,5-c]pyridin-2-yl)-N-hydroxyisoindoline-4-carboxamide hydrochloride] the IC50 was greater than 1000 nM. With `O=C(NO)c1cccc2c1CN(c1nc3c(o1)CCC(C(F)(F)F)C3)C2` (stereo not shown) [Compound 16-1, N-hydroxy-2-(5-(trifluoromethyl)-4,5,6,7-tetrahydrobenzo[d]oxazol-2-yl)isoindoline-4-carboxamide] the IC50 was less than 500 nM. `CC1(C)c2cccc(C(=O)NO)c2CN1c1nc2ccc(C(F)(F)F)cc2o1` [Compound 18-3, N-hydroxy-1,1-dimethyl-2-(6-(trifluoromethyl)benzo[d]oxazol-2-yl)isoindoline-4-carboxamide] was tested, and the IC50 was less than 500 nM. In the case of `CC1(C)c2cccc(C(=O)NO)c2CN1c1nc2c(o1)CCC(C(F)(F)F)C2` (stereo not shown) [Compound 19-1, N-hydroxy-1,1-dimethyl-2-[5-(trifluoromethyl)-4,5,6,7-tetrahydro-1,3-benzoxazol-2-yl]-2,3-dihydro-1H-isoindole-4-carboxamide], the IC50 is reported as less than 500 nM. `CC1(C)c2cccc(C(=O)NO)c2CN1c1nc2c(o1)CC(C(F)(F)F)CC2` (stereo not shown) [Compound 19-2, N-hydroxy-1,1-dimethyl-2-(6-(trifluoromethyl)-4,5,6,7-tetrahydrobenzo[d]oxazol-2-yl)isoindoline-4-carboxamide] was tested, and the IC50 was less than 500 nM. In the case of `CC1(C)c2cccc(C(=O)NO)c2CN1c1nc2ncccc2s1` [Compound 20-1, N-hydroxy-1,1-dimethyl-2-(thiazolo[4,5-b]pyridin-2-yl)isoindoline-4-carboxamide], the IC50 is reported as greater than 1000 nM. With `CC1(C)c2cccc(C(=O)NO)c2CN1c1nc2cc(C(F)(F)F)ccc2s1` [Compound 20-2, N-hydroxy-1,1-dimethyl-2-(5-(trifluoromethyl)benzo[d]thiazol-2-yl)isoindoline-4-carboxamide] the IC50 was less than 500 nM. With `CC1(C)c2cccc(C(=O)NO)c2CN1c1nc2cnccc2o1` [Compound 21-1, N-hydroxy-1,1-dimethyl-2-(oxazolo[4,5-c]pyridin-2-yl)isoindoline-4-carboxamide] the IC50 was less than 500 nM. Compound `CC1(C)c2cccc(C(=O)NO)c2CN1c1nc2ccccc2s1` [Compound 22-1, 2-(benzo[d]thiazol-2-yl)-N-hydroxy-1,1-dimethylisoindoline-4-carboxamide] has an IC50 of less than 500 nM. Compound `CC1(C)c2cccc(C(=O)NO)c2CN1c1ccc2ccccc2n1` [Compound 22-5, N-hydroxy-1,1-dimethyl-2-(quinolin-2-yl)isoindoline-4-carboxamide] has an IC50 of less than 500 nM. `CC1(C)c2cccc(C(=O)NO)c2CN1c1nc(C(F)(F)F)cs1` [Compound 22-9, N-hydroxy-1,1-dimethyl-2-(4-(trifluoromethyl)thiazol-2-yl)isoindoline-4-carboxamide] gave an IC50 greater than 1000 nM. Compound `CC1(C)c2cccc(C(=O)NO)c2CN1c1ccc2cc(C(F)(F)F)ccc2n1` [Compound 23-1, N-hydroxy-1,1-dimethyl-2-(6-(trifluoromethyl)quinolin-2-yl)isoindoline-4-carboxamide] has an IC50 of less than 500 nM. With `CC1(C)c2cccc(C(=O)NO)c2CN1c1ccc2ccc(C(F)(F)F)cc2n1` [Compound 23-2, N-hydroxy-1,1-dimethyl-2-(7-(trifluoromethyl)quinolin-2-yl)isoindoline-4-carboxamide] the IC50 was 500 to 1000 nM. With `CC1(C)c2cccc(C(=O)NO)c2CN1c1ccc2nc(C(F)(F)F)ccc2n1` [Compound 24-1, N-hydroxy-1,1-dimethyl-2-(6-(trifluoromethyl)-1,5-naphthyridin-2-yl)isoindoline-4-carboxamide] the IC50 was less than 500 nM. For `CC1(C)c2cccc(C(=O)NO)c2CN1c1nc2ccccc2o1` [Compound 25-1, 2-(benzo[d]oxazol-2-yl)-N-hydroxy-1,1-dimethylisoindoline-4-carboxamide], the IC50 was less than 500 nM. `CC1(C)c2cccc(C(=O)NO)c2CN1c1nc2nc(C(F)(F)F)ccc2o1` [Compound 26-1, N-hydroxy-1,1-dimethyl-2-(5-(trifluoromethyl)oxazolo[4,5-b]pyridin-2-yl)isoindoline-4-carboxamide] gave an IC50 of less than 500 nM. Compound `CC1(C)c2cccc(C(=O)NO)c2CN1c1nc2ncc(C(F)(F)F)cc2o1` [Compound 26-2, N-hydroxy-1,1-dimethyl-2-(6-(trifluoromethyl)oxazolo[4,5-b]pyridin-2-yl)isoindoline-4-carboxamide] has an IC50 of less than 500 nM. Work on `CC1(C)c2cccc(C(=O)NO)c2CN1c1ccc(C(F)(F)F)c(C#N)n1` [Compound 27-1, 2-(6-cyano-5-(trifluoromethyl)pyridin-2-yl)-N-hydroxy-1,1-dimethylisoindoline-4-carboxamide] yielded an IC50 of less than 500 nM. For `CC1(C)c2cccc(C(=O)NO)c2CN1c1cc(C#N)c(C(F)(F)F)cn1` [Compound 27-2, 2-(4-cyano-5-(trifluoromethyl)pyridin-2-yl)-N-hydroxy-1,1-dimethylisoindoline-4-carboxamide], the IC50 was less than 500 nM.
